Assay results taken from patent US10168342B2, “Lipid probes and uses thereof” (THE SCRIPPS RESEARCH INSTITUTE, priority 2015, dated 2019).

How the values were obtained:
Test in all cases: In situ competitive SILAC profiling with A-DA probe in (PMA-stimulated) A549 cells
Details in all cases: A549 cells, A-DA probe
[1] = target: T1, A-DA lipid probe targets in A549 cells (Homo sapiens, UniProt O15173)
T1 sequence (O15173 1-223): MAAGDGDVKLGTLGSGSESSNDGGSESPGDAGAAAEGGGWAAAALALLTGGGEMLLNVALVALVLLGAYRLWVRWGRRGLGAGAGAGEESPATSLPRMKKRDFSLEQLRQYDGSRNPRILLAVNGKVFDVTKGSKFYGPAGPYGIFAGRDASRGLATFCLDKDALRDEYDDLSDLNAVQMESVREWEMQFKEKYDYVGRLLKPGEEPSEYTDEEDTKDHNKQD

[2] = target: T2, A-DA lipid probe targets in A549 cells (Homo sapiens, UniProt Q9HAW7)
T2 sequence (Q9HAW7 26-530): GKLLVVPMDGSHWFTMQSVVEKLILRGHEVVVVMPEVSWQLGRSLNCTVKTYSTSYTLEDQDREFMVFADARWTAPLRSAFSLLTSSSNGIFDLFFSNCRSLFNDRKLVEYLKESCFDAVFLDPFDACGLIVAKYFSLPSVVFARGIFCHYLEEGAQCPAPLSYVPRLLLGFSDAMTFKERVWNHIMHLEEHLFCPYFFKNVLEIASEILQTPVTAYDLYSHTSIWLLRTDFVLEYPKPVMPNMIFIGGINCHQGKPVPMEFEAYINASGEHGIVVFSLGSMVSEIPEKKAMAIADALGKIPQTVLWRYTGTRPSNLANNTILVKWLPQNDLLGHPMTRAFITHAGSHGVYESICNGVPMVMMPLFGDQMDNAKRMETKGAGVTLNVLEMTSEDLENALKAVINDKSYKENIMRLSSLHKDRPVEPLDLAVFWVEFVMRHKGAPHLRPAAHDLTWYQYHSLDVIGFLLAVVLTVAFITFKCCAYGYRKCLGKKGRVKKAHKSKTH

[3] = target: T3, A-DA lipid probe targets in A549 cells (Homo sapiens, UniProt O75911)
T3 sequence (O75911 1-302): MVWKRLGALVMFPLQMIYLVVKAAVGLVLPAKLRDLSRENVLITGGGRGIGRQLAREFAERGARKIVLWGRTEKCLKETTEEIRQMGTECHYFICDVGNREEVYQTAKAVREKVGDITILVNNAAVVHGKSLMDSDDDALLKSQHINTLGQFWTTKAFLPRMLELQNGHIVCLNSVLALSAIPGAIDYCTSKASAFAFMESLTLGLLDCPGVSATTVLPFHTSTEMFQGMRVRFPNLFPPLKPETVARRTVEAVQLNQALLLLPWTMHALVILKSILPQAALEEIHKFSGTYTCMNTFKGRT

[4] = target: T4, A-DA lipid probe targets in A549 cells (Homo sapiens, UniProt P45880)
T4 sequence (P45880 1-294): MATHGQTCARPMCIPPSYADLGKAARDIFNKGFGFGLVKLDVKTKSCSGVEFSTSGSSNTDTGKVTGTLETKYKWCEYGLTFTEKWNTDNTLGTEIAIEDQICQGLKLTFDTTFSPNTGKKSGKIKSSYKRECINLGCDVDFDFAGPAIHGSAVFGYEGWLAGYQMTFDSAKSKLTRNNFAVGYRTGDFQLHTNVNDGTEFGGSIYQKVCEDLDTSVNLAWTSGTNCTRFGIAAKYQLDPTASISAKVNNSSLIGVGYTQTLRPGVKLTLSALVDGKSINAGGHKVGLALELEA

[5] = target: T5, A-DA lipid probe targets in A549 cells (Homo sapiens, UniProt Q9NS69)
T5 sequence (Q9NS69 1-142): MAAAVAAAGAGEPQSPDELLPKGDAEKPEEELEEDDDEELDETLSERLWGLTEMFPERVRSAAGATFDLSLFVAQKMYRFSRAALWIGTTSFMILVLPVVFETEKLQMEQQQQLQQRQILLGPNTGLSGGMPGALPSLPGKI

[6] = target: T6, A-DA lipid probe targets in A549 cells (Homo sapiens, UniProt Q53GQ0)
T6 sequence (Q53GQ0 1-312): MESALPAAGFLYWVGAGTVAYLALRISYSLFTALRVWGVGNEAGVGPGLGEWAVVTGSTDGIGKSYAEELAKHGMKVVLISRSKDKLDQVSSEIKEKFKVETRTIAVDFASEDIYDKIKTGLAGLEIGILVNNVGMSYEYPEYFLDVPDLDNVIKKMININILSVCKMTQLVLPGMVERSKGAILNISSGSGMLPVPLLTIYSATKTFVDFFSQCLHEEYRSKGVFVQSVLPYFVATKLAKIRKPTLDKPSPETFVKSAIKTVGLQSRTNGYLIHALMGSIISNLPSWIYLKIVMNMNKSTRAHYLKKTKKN

Row | SMILES | SILAC ratio, PGRMC2 (Q80UU9) ([1]; competitor 5 μM) | SILAC ratio, PGRMC2 (Q80UU9) ([1]; competitor 50 μM) | SILAC ratio, UGT1A7 (Q9HAW7) ([2]; competitor 5 μM) | SILAC ratio, UGT1A7 (Q9HAW7) ([2]; competitor 50 μM) | SILAC ratio, DHRS3 (O75911) ([3]; competitor 5 μM) | SILAC ratio, DHRS3 (O75911) ([3]; competitor 50 μM) | SILAC ratio, VDAC2 (P45880) ([4]; competitor 5 μM) | SILAC ratio, VDAC2 (P45880) ([4]; competitor 50 μM) | SILAC ratio, TOMM22 (Q9CPQ3) ([5]; competitor 5 μM) | SILAC ratio, TOMM22 (Q9CPQ3) ([5]; competitor 50 μM) | SILAC ratio, HSD17B12 (Q53GQ0) ([6]; competitor 5 μM) | SILAC ratio, HSD17B12 (Q53GQ0) ([6]; competitor 50 μM) | SILAC ratio, PGRMC2 (Q80UU9) ([1]; competitor 25 μM) | SILAC ratio, UGT1A7 (Q9HAW7) ([2]; competitor 25 μM) | SILAC ratio, DHRS3 (O75911) ([3]; competitor 25 μM) | SILAC ratio, VDAC2 (P45880) ([4]; competitor 25 μM) | SILAC ratio, TOMM22 (Q9CPQ3) ([5]; competitor 25 μM) | SILAC ratio, HSD17B12 (Q53GQ0) ([6]; competitor 25 μM)
1 | C=CCN(C)CCCCCCOc1ccc(C(=O)c2ccc(Br)cc2)c(F)c1 [Ro488071] | 1.6 | 2.1 | 1.6 | 40.0 | 1.8 | 3.1 | 1.5 | 3.4 | 1.4 | 1.4 | 1.4 | 3.0 | – | – | – | – | – | –
2 | O=C(/C=C/c1cccnc1)NCCCCC1CCN(C(=O)c2ccccc2)CC1 [FK-866, reference compound] | – | – | – | – | – | – | – | – | – | – | – | – | 1.2 | 2.1 | 2.0 | 1.2 | 1.3 | 1.4
